The text below walks through data of ChEMBL document CHEMBL4342443, “Phloroglucinol Benzophenones and Xanthones from the Leaves of Garcinia cowa and Their Nitric Oxide Production and α-Glucosidase Inhibitory Activities” (J Nat Prod, 2020).

In assay [1] the target is T1, Alpha glucosidase (Homo sapiens, UniProt O43451+P10253+P14410+Q2M2H8). Kind of assay: Inhibition of alpha-glucosidase (unknown origin) at > 100 uM using p-nitrophenyl alpha-D-glucoside as substrate preincubated for 0.5 hrs followed substrate addition and measured after 1 hr by colorimetric method. It is filed as protein assay.
Assay [2] concerns RAW264.7. Nature of the assay: Inhibition of NO production in LPS-stimulated mouse RAW264.7 cells incubated for 24 hrs by Griess reagent-based assay. To be noted: RAW264.7, 24 h. Format: functional, cell-based. A general note: The Griess reaction detects nitrite, a stable product of nitric oxide.
Assay [3] addresses T1, Alpha glucosidase. Kind of assay: Inhibition of alpha-glucosidase (unknown origin) using p-nitrophenyl alpha-D-glucoside as substrate preincubated for 0.5 hrs followed substrate addition and measured after 1 hr by colorimetric method. It is filed as protein assay.
Assay [4] has as its system RAW264.7. Nature of the assay: Inhibition of NO production in LPS-stimulated mouse RAW264.7 cells at > 100 uM incubated for 24 hrs by Griess reagent-based assay. It is filed as functional, cell-based.

By IC50 is commonly meant the concentration that inhibits the measured activity by half.

Calls of active or inactive are those of the source. The rule behind the calls is not given here.

`CC(C)=CC[C@@H]1C[C@@]23CCC(C)(C)OC2=C(C(=O)c2ccccc2)C(=O)[C@H](C3=O)[C@@]1(C)CCCC(C)(C)O`: the inhibition result at Alpha glucosidase [1] is “inactive”. The compound also displayed an IC50 in the assay with RAW264.7 [2] of 11 µM.
As to `COc1c(O)cc2oc3cc(O)c(C/C=C(\C)CO)c(O)c3c(=O)c2c1C/C=C(\C)CCC=C(C)C`, the IC50 against Alpha glucosidase [3] was determined as 28.7 µM; with RAW264.7 [2] it was 13.4 µM.
In the assay with RAW264.7 [2], `N=C(N)NN` [PIMAGEDINE] returned an IC50 of 19.9 µM.
Consider `COc1cc2oc3cc(O)c(OC)c(CC=C(C)C)c3c(=O)c2c(O)c1CC=C(C)C`, for which the inhibition result in the assay with RAW264.7 [4] was “inactive”. Further, the IC50 against Alpha glucosidase [3] is 22.6 µM.
Turning to `CC1(C)CCc2c(cc3oc4c(O)c(O)ccc4c(=O)c3c2O)O1`, the inhibition entry on Alpha glucosidase [1] and in the assay with RAW264.7 [4] was “inactive” in each case.
Turning to `COc1c(O)cc2oc3cc(O)c(CC=C(C)C)c(O)c3c(=O)c2c1C/C=C(\C)CCC=C(C)C` [COWANIN], in the assay with RAW264.7 [4], the inhibition result was “inactive”. The compound also showed an IC50 at Alpha glucosidase [3] of 37.4 µM.
With `CC(C)=CCC/C(C)=C/CCC(C)(O)CCc1c(O)c(O)cc2oc3cc(O)cc(O)c3c(=O)c12` (racemic), the concentration for half-maximal inhibition (IC50) against Alpha glucosidase [3] amounted to 25.4 µM; with RAW264.7 [2] it was 7.7 µM.
`CC(C)=CCC/C(C)=C/CC/C(C)=C/CCC(C)(O)CCc1c(O)c(O)cc2oc3cc(O)cc(O)c3c(=O)c12` (racemic): the half-maximal inhibitory concentration (IC50) came to 15.4 µM against Alpha glucosidase [3] and 5.8 µM in the assay with RAW264.7 [2].
Take `COc1c(O)cc2oc3cc(O)c(CCC(C)(C)O)c(O)c3c(=O)c2c1CC=C(C)C`: the inhibition result at Alpha glucosidase [1] was “inactive”. Besides, the IC50 with RAW264.7 [2] was found to be 5.4 µM.
For the compound `CC(C)=CCC/C(C)=C/Cc1c(O)cc2oc3c(O)cccc3c(=O)c2c1O`, the inhibition result on Alpha glucosidase [1] and in the assay with RAW264.7 [4] was “inactive” in each case.
Turning to `CC(C)=CCC/C(C)=C/CC/C(C)=C/Cc1c(O)c(O)cc2oc3cc(O)cc(O)c3c(=O)c12`, the inhibition entry in the assay with RAW264.7 [4] is “inactive”. For the same compound, the IC50 against Alpha glucosidase [3] was determined as 76.2 µM.
Consider `COc1c(O)cc2oc3cc4c(c(O)c3c(=O)c2c1CC=C(C)C)C=CC(C)(C)O4` [MANGOSTANIN], for which the results for the IC50 against Alpha glucosidase [3] and with RAW264.7 [2] were 11.4 µM and 18.6 µM, respectively.
As for `CC(C)(O)CCC[C@@]1(C)[C@H](CCC(C)(C)O)C[C@@]23CCC(C)(C)OC2=C(C(=O)c2ccccc2)C(=O)[C@@H]1C3=O`, the inhibition entry on Alpha glucosidase [1] and in the assay on RAW264.7 [4] was “inactive” in each case.
